The text below walks through data of the supplement of paper PMC10307832.

Common to all, as to assay: relative viability (nuclei count vs DMSO), 5 days (fraction); higher = more cells survive
Compound in experiment [1]: CS(=O)(=O)N1CCN(Cc2cc3nc(-c4cccc5[nH]ncc45)nc(N4CCOCC4)c3s2)CC1 [Pictilisib] + CC(=O)Nc1cccc(-n2c(=O)n(C3CC3)c(=O)c3c(Nc4ccc(I)cc4F)n(C)c(=O)c(C)c32)c1 [Trametinib] (partner 0.02 µM)
The method, boiled down: (§1)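 Relative viability was taken as the ratio of nuclei in treated wells to nuclei in vehicle wells. Lung cancer cell lines in 1536-well plates received compounds by pin tool one day after seeding, either one drug alone or a fixed anchor-drug dose plus five library-drug doses (not always all listed) in √10 steps. Nuclei were counted on 4× images after 5 days of treatment, and values are medians of duplicate plates.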

Compound in experiment [2]: CS(=O)(=O)N1CCN(Cc2cc3nc(-c4cccc5[nH]ncc45)nc(N4CCOCC4)c3s2)CC1 [Pictilisib] + CC(C)C[C@H](NC(=O)[C@H](Cc1ccccc1)NC(=O)c1cnccn1)B(O)O [Bortezomib] (partner 0.002 µM)
The method, boiled down: as §1

Compound in experiment [3]: NC1(c2ccc(-c3nc4ccn5c(=O)[nH]nc5c4cc3-c3ccccc3)cc2)CCC1 [MK-2206] + CCNC(=O)c1noc(-c2cc(C(C)C)c(O)cc2O)c1-c1ccc(CN2CCOCC2)cc1 [Luminespib] (partner 0.01 µM)
The method, boiled down: as §1

Compound in experiment [4]: NC1(c2ccc(-c3nc4ccn5c(=O)[nH]nc5c4cc3-c3ccccc3)cc2)CCC1 [MK-2206] + O=C(CCCCCCC(=O)Nc1ccccc1)NO [Vorinostat] (partner 1 µM)
The method, boiled down: as §1

Compound in experiment [5]: NC1(c2ccc(-c3nc4ccn5c(=O)[nH]nc5c4cc3-c3ccccc3)cc2)CCC1 [MK-2206] + O=C(c1cc(Cc2n[nH]c(=O)c3ccccc23)ccc1F)N1CCN(C(=O)C2CC2)CC1 [Olaparib] (partner 8 µM)
The method, boiled down: as §1

Consider UMC-11, for which the relative viability amounted to 0.671 in experiment [1] (first compound 0.02 µM); 0.872 in experiment [1] (first compound 0.06325 µM); 0.735 in experiment [1] (first compound 0.6325 µM); 0.674 in experiment [1] (first compound 2 µM); 0.828 in experiment [2] (first compound 0.02 µM); 0.902 in experiment [2] (first compound 0.06325 µM). Further, the relative viability in experiment [2] (first compound 0.6325 µM) came to 0.78; in experiment [2] (first compound 2 µM) it was 0.768; in experiment [3] (first compound 0.01 µM) it was 1; in experiment [3] (first compound 0.03162 µM), 0.944; in experiment [3] (first compound 0.3162 µM) it was 1.12; in experiment [3] (first compound 1 µM) it was 1.1. The relative viability in experiment [4] (first compound 0.01 µM) was 0.388; in experiment [4] (first compound 0.03162 µM) it was 0.365; in experiment [4] (first compound 0.3162 µM), 0.416; in experiment [4] (first compound 1 µM), 0.379; in experiment [5] (first compound 0.01 µM), 0.52; in experiment [5] (first compound 0.03162 µM), 1.16. For the same cell line, the relative viability in experiment [5] (first compound 0.3162 µM) stood at 0.381; in experiment [5] (first compound 1 µM), 0.363.
